The values below come from patent US5185349A, “Substituted amide ACAT inhibitors lactone derivatives” (priority 1991, dated 1993).

Molecules are shown by their SMILES. pIC50: −log10 of the molar value. Where a name gives a salt, the structure may show the parent alone.

Broadly, the pIC50 is the IC50 on a negative log10 scale, so that one unit is a factor of ten.

The assay has as its target T1, acyl-CoA: cholesterol acyltransferase (ACAT) (Oryctolagus cuniculus, UniProt G1SFD9).
T1 construct: in a tissue preparation containing rabbit intestinal microsomes; from tissue; host or cells: rabbit intestine, microsomes
T1 sequence (G1SFD9 1-524): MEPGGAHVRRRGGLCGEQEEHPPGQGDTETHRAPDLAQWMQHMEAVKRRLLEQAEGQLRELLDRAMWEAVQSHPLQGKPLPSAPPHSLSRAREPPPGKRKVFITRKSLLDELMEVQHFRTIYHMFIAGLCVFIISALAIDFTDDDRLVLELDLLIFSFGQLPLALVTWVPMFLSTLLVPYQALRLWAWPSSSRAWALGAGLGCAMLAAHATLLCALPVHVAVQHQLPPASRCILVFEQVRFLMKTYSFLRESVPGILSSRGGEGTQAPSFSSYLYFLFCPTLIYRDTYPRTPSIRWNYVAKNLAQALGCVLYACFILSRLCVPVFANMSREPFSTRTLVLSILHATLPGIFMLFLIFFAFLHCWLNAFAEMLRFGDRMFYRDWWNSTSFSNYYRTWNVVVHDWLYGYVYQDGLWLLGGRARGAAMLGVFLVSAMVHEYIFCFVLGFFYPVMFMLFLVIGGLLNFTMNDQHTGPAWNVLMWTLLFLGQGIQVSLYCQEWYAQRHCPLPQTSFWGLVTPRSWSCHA
Put plainly: in vitro ACAT inhibition test (radiolabeled cholesterol oleate formed from radiolabeled oleic acid, rabbit intestinal microsomes). The following applies: concentration required to inhibit the activity of the enzyme by 50%. The format is biochemical. The protocol: The ability of representative compounds of the present invention to inhibit ACAT was measured using an in vitro test more fully described in F. J. Field and R. G. Salone, Biochemica et Biophysica 712:557-570 (1982). The test assesses the ability of a test compound to inhibit the acylation of cholesterol by oleic acid by measuring the amount of radiolabeled cholesterol oleate formed from radiolabeled oleic acid in a tissue preparation containing rabbit intestinal microsomes.
The data appear in Table 1 where they are expressed as IC50 values; i.e., the concentration of test compound required to inhibit the activity of the enzyme by 50%.
As for `CC(C)c1cccc(C(C)C)c1NC(=O)C1CC(c2ccc(F)cc2)OC1=O` (centres unmarked) [Example 1, N-[2,6-bis(1-methylethyl)phenyl]-5-(4-fluorophenyl)tetrahydro-2-oxo-3-furancarboxamide], the pIC50 was 6.23.

`CCCCCCCC1CC(C(=O)Nc2c(C(C)C)cccc2C(C)C)C(=O)O1` (centres unmarked) [Example 2, N-[2,6-bis(1-methylethyl)phenyl]-5-heptyltetrahydro-2-oxo-3-furancarboxamide] gave a pIC50 of 6.59. Compared with the last molecule, the pIC50 is 0.36 log units higher. On to `CCCCCCC1CCC(C(=O)Nc2c(C(C)C)cccc2C(C)C)C(=O)O1` (centres unmarked) [Example 3, N-[2,6-bis(1-methylethyl)phenyl]-6-hexyltetrahydro-2-oxo-2H-pyran-3-carboxamide], for which the pIC50 is 6.39.

`CCCCCCCC1CCC(C(=O)Nc2c(C(C)C)cccc2C(C)C)C(=O)O1` (centres unmarked) [Example 4, N-[2,6-bis(1-methylethyl)phenyl]-6-heptyltetrahydro-2-oxo-2H-pyran-3-carboxamide] gave a pIC50 of 6.47. `CC(C)c1cccc(C(C)C)c1NC(=O)C(CC(O)c1ccc(F)cc1)C(=O)O` (stereo not drawn) [Example 7, γ-[2,6-bis(1-methylethyl)phenyl]-amino]carbonyl]-4-fluoro-α-hydroxybenzenebutanoic acid monosodium salt] had a pIC50 of 5.88.
